According to patent US7875715B2, “Compounds for the treatment of multi-drug resistant bacterial infections” (AstraZeneca AB, priority 2005, dated 2011):
In brackets after ≈: the same amount, converted by molar mass. Structures can show the parent of a compound that is named as a salt. Where two headings read alike, the source gives them in different places.

What was measured:
Escherichia coli = assay: Bacterial susceptibility testing in liquid media (MIC), E. coli; type: cell-based; settings: lowest concentration reducing growth by 80% or more, 37° C., 24 hours
Protocol: (§1) Compounds were tested for antimicrobial activity by susceptibility testing in liquid media in a 96 well format. Compounds were dissolved in dimethylsulfoxide and tested in 10 doubling dilutions in the susceptibility assays. The organisms used in the assay were grown overnight on suitable agar media and then suspended in a liquid medium appropriate for the growth of the organism. The suspension was a 0.5 McFarland and a further 1 in 10 dilution was made into the same liquid medium to prepare the final organism suspension in 100 μL. Plates were incubated under appropriate conditions at 37° C. for 24 hours prior to reading. The Minimum Inhibitory Concentration (MIC) was determined as the lowest drug concentration able to reduce growth by 80% or more.
(§2) Compounds were evaluated against a panel of Gram-positive species, including Staphylococcus aureus, Streptococcus pneumoniae, Streptococcus pyogenes, and Enterococcus faecium. In addition, compounds were evaluated against a panel of Gram-negative species including Haemophilus influenzae, Escherichia coli and Moraxella catarrhalis.

DNA gyrase = DNA gyrase (Escherichia coli, UniProt P0AES4+P0AES6); assay: Supercoiling assay: inhibition of Escherichia coli DNA supercoiling activity; type: biochemical
Protocol: Compounds were tested for inhibition of Escherichia coli DNA supercoiling activity as follows. Assays were performed in polypropylene multiwell plates in 50 μl reactions containing 35 mM Tris-HCl (pH 7.5), 24 mM KCl, 4 mM MgCl2, 2 mM dithiothreitol, 1.8 mM spermidine, 5% (v/v) glycerol, 200 nM bovine serum albumin, 1.25% (v/v) DMSO, 3 mM ATP, 10 ng/ml relaxed pBR322 plasmid, 0.6 nM DNA gyrase, and test compound. Reactions were quenched after 1 hour by the addition of 10 μl of 30% (w/v) Ficoll-400, 10 mM EDTA, and 5% sodium dodecyl sulfate. Twenty-five μl of each sample was loaded onto a 0.8% (w/v) agarose gel and electrophoresed. The gel and gel buffer contained 1×TBE buffer (89 mM Tris base, 89 mM boric acid, and 2 mM EDTA at pH 8.3). After electrophoresis for 3 hours at 70V, the gel was stained with ethidium bromide and visualized by excitation with ultraviolet light. The fluorescence intensity of the most supercoiled plasmid band was used to measure gyrase activity. Compound potency was based IC50 measurements determined from reactions performed with eight 2-fold serial dilutions of each compound and a control without compound.

Streptococcus pneumoniae = assay: Bacterial susceptibility testing in liquid media (MIC), S. pneumo; type: cell-based; settings: MIC: lowest concentration reducing growth by 80% or more; 37° C., 24 hours
Protocol: as §1, §2

GyrB ATPase = GyrB ATPase (Escherichia coli, UniProt P0AES4+P0AES6); assay: ATPase assay: inhibition of GyrB ATPase activity, ammonium molybdate/malachite green phosphate detection; type: biochemical, E. coli
Protocol: Compounds were tested for inhibition of GyrB ATPase activity using an ammonium molybdate/malachite green-based phosphate detection assay (Lanzetta, P. A., L. J. Alvarez, P. S. Reinach, and O. A. Candia, 1979, 100: 95-97). Assays were performed in multiwell plates in 100 μl reactions containing: 50 mM TRIS buffer pH 7.5, 75 mM ammonium acetate, 5.5 mM magnesium chloride, 0.5 mM ethylenediaminetetraacetic acid, 5% glycerol, 1 mM 1,4-dithio-DL-threitol, 200 nM bovine serum albumin, 16 μg/ml sheared salmon sperm DNA, 4 nM E. coli GyrA, 4 nM E. coli GyrB, 250 μM ATP, and compound in dimethylsulfoxide. Reactions were quenched with 150 μL of ammonium molybdate/malachite green detection reagent containing 1.2 mM malachite green hydrochloride, 8.5 mM ammonium molybdate tetrahydrate, and 1 M hydrochloric acid. Plates were read in an absorbance plate reader at 625 nm and percent inhibition values were calculated using dimethylsulfoxide (2%)-containing reactions as 0% inhibition and novobiocin-containing (2 μM) reactions as 100% inhibition controls. Compound potency was based on IC50 measurements determined from reactions performed in the presence of 10 different compound concentrations.

[1] = 4 nM E. coli GyrA, 4 nM E. coli GyrB, 250 μM ATP, read-out: gyrase ATPase (converted)

melting point | Structure (SMILES) | MIC (Escherichia coli) [µg/mL] | S. pneumo (Streptococcus pneumoniae) [microgram/ml] | other results
> 190 °C | O=C(O)[C@@H]1CN(CCn2c(=O)ccc3c(F)cc(F)cc32)CC[C@H]1NCc1cc2c(cn1)OCCO2 (as salt: hydrochloride) [Example 16, (3R,4R)-1-[2-(5,7-Difluoro-2-oxoquinolin-1(2H)-yl)ethyl]-4-[(2,3-dihydro[1,4]dioxino[2,3-c]pyridin-7-ylmethyl)amino]piperidine-3-carboxylic acid] |  |  | 
 | O=C1COc2ccccc2N1CCN1CCC(NCc2cc3c(cn2)OCCO3)CC1 [Example 49, 4-(2-{4-[(2,3-Dihydro[1,4]dioxino[2,3-c]pyridin-7-ylmethyl)amino]piperidin-1-yl}ethyl)-2H-1,4-benzoxazin-3(4H)-one] | 8 (≈ 18.8 µM) | 4 | IC50 (DNA gyrase): 7070 nM
 | O=C1COc2ccc(F)cc2N1CCN1CCC(NCc2cc3c(cn2)OCCO3)CC1 [Example 26, 4-(2-{4-[(2,3-Dihydro[1,4]dioxino[2,3-c]pyridin-7-ylmethyl)amino]piperidin-1-yl}ethyl)-6-fluoro-2H-1,4-benzoxazin-3(4H)-one] | 1 (≈ 2.26 µM) | 0.25 | IC50 (DNA gyrase): 949 nM
212 °C | N#Cc1ccc2ccc(=O)n(CCN3CCC(NCc4ccc5c(n4)NC(=O)CO5)CC3)c2c1 [Example 6, 2-Oxo-1-[2-(4-{[(3-oxo-3,4-dihydro-2H-pyrido[3,2-b][1,4]oxazin-6-yl)methyl]amino}piperidin-1-yl)ethyl]-1,2-dihydroquinoline-7-carbonitrile] |  |  | 
150 to 155 °C | O=C1COc2ccc(CNC3CCN(CCn4c(=O)ccc5ccc(F)cc54)CC3)nc2N1 (as salt: salt) [Example 9, 6-[({1-[2-(7-Fluoro-2-oxoquinolin-1(2H)-yl)ethyl]piperidin-4-yl}amino)methyl]-2H-pyrido[3,2-b][1,4]oxazin-3(4H)-one] |  |  | 
> 275 °C (dec.) | O=c1ccc2ccc(F)cc2n1CCN1CCC(NCc2cc3c(cn2)OCCO3)CC1 (as salt: HCl) [Example 10, 1-(2-{4-[(2,3-Dihydro[1,4]dioxino[2,3-c]pyridin-7-ylmethyl)amino]piperidin-1-yl}ethyl)-7-fluoroquinolin-2(1H)-one] |  |  | 
150 to 180 °C | O=C(O)[C@H]1CN(CCn2c(=O)ccc3c(F)cc(F)cc32)CC[C@H]1NC/C=C/c1cc(F)ccc1F (as salt: hydrochloride) [Example 13, (3S,4R)-1-[2-(5,7-Difluoro-2-oxoquinolin-1(2H)-yl)ethyl]-4-{[(2E)-3-(2,5-difluorophenyl)prop-2-en-1-yl]amino}piperidine-3-carboxylic acid] |  |  | 
 | N#Cc1ccc2ccc(=O)n(CCN3CCC(NCc4cc5c(cn4)OCCO5)CC3)c2c1 [Example 5, 1-(2-{4-[(2,3-Dihydro[1,4]dioxino[2,3-c]pyridin-7-ylmethyl)amino]piperidin-1-yl}ethyl)-2-oxo-1,2-dihydroquinoline-7-carbonitrile] | 0.5 (≈ 1.12 µM) | 0.12 | IC50 (GyrB ATPase; [1]): 157 nM; IC50 (DNA gyrase; 0.6 nM DNA gyrase, relaxed pBR322 plasmid, 1 hour, read-out: gyrase supercoiling (converted)): 114 nM
> 205 °C | O=C(O)[C@@H]1CN(CCn2c(=O)ccc3c(F)cc(F)cc32)CC[C@H]1NC/C=C/c1cc(F)ccc1F (as salt: hydrochloride) [Example 17, (3R,4R)-1-[2-(5,7-Difluoro-2-oxoquinolin-1(2H)-yl)ethyl]-4-{[(2E)-3-(2,5-difluorophenyl)prop-2-en-1-yl]amino}piperidine-3-carboxylic acid] |  |  | 
158 to 170 °C | O=C1COc2ccc(CNC3CCN(CCn4c(=O)ccc5ccc(F)c(F)c54)CC3)nc2N1 (as salt: salt) [Example 7, 6-[({1-[2-(7,8-Difluoro-2-oxoquinolin-1(2H)-yl)ethyl]piperidin-4-yl}amino)methyl]-2H-pyrido[3,2-b][1,4]oxazin-3(4H)-one] |  |  | 
170 to 180 °C | O=C1COc2ccc(CNC3CCN(CCn4c(=O)ccc5c(F)cc(F)cc54)CC3)nc2N1 (as salt: salt) [Example 8, 6-[({1-[2-(5,7-Difluoro-2-oxoquinolin-1(2H)-yl)ethyl]piperidin-4-yl}amino)methyl]-2H-pyrido[3,2-b][1,4]oxazin-3(4H)-one] |  |  | 
260 °C | COc1ccc2c(=O)ccn(CCN3CCC(NCc4cc5c(cn4)OCCO5)CC3)c2c1 (as salt: hydrochloride) [Example 2, 1-(2-{4-[(2,3-Dihydro[1,4]dioxino[2,3-c]pyridin-7-ylmethyl)amino]piperidin-1-yl}ethyl)-7-methoxyquinolin-4(1H)-one] |  |  | 
 | N#Cc1ccc2c(c1)N(CCN1CCC(NC/C=C/c3cc(F)ccc3F)CC1)C(=O)CO2 [Example 37, 4-[2-(4-{[(2E)-3-(2,5-Difluorophenyl)prop-2-en-1-yl]amino}piperidin-1-yl)ethyl]-3-oxo-3,4-dihydro-2H-1,4-benzoxazine-6-carbonitrile] | 0.25 (≈ 0.552 µM) | 0.06 | IC50 (GyrB ATPase): 17.7 nM
130 °C | COC(=O)c1cc2ccc(OC)cc2n1CCN1CCC(NCc2cc3c(cn2)OCCO3)CC1 [Example 3, Methyl 1-(2-{4-[(2,3-dihydro[1,4]dioxino[2,3-c]pyridin-7-ylmethyl)amino]piperidin-1-yl}ethyl)-6-methoxy-1H-indole-2-carboxylate] |  |  | 
 | Cn1c(=O)c2ccc(F)cc2n(CCN2CCC(NCc3ccc4c(n3)NC(=O)CO4)CC2)c1=O [Example 66, 7-Fluoro-3-methyl-1-[2-(4-{[(3-oxo-3,4-dihydro-2H-pyrido[3,2-b][1,4]oxazin-6-yl)methyl]amino}piperidin-1-yl)ethyl]quinazoline-2,4(1H,3H)-dione] | 4 (≈ 8.29 µM) | 8 | IC50 (GyrB ATPase; [1]): 622 nM
